In the assay the target is T1, SARS-CoV-2 Spike (Severe acute respiratory syndrome coronavirus 2, UniProt P0DTC2).
T1 construct: gene S
The experiment in a line: SPR (Reichert4, CM5 chip, Spike immobilised). Type of assay: binding.

In PMC12399569, “Disruption of Spike Priming in Virus Entry: Tetrandrine as a Pan‐Coronavirus Inhibitor” (MedComm, 2025) one finds Kd data, which are given here for one molecule.

The structures appear in SMILES notation.

Take `COc1ccc2cc1Oc1ccc(cc1)C[C@H]1c3cc(c(OC)cc3CCN1C)Oc1c(OC)c(OC)cc3c1[C@H](C2)N(C)CC3` [tetrandrine]: the Kd was about 2230 nM.
